This is an account of results in ChEMBL document CHEMBL1133282, “Synthesis and preliminary biological evaluation of 4,6-disubstituted 3-cyanopyridin-2(1H)-ones, a new class of calcium entry blockers” (Bioorg Med Chem Lett, 2000).

Holding throughout (format): functional
Assay [1] is filed under the species Rattus norvegicus. Nature of the assay: Tested in vitro on K+ -depolarized rat aorta strips to evaluate its ability to relax the initial contraction induced by K.
For assay [2], the species on record is Rattus norvegicus. Nature of the assay: Vasorelaxing activity expressed as maximum smooth muscle relaxation at 1*10e-4 M.
For assay [3], the species on record is Rattus norvegicus. The assay is described as follows: Vasorelaxing activity expressed as maximum smooth muscle relaxation at 1*10e-5 M.

As a reminder, the IC50 is the concentration needed to halve the response being measured. Read a low IC50 as inhibition by little substance. In assay [1], `N#Cc1c(-c2ccccc2)cc(-c2ccccc2O)[nH]c1=O` had an IC50 of 0.95 nM. In assay [2], this compound registered a Max relaxation of 23.86%.
The like results for `N#Cc1c(-c2ccccc2Br)cc(-c2ccccc2O)nc1O` were, in that order, 17000 nM and 35.29%.
`COc1ccc(OC)c(-c2cc(-c3ccccc3O)nc(O)c2C#N)c1` displayed a Max relaxation in assay [3] of 95.51%. Besides, it took 1.1 nM to reach half-maximal inhibition in assay [1] (IC50).
For the compound `COc1ccccc1-c1cc(-c2ccccc2O)nc(O)c1C#N`, the IC50 in assay [1] was 12 nM. Also, the Max relaxation in assay [2] came to 99.54%.
Take `COc1ccc([C@@H]2Sc3ccccc3N(CCN(C)C)C(=O)[C@@H]2OC(C)=O)cc1` [DILTIAZEM]: the IC50 in assay [1] turned out to be 48 nM. The Max relaxation in assay [2] is listed as 97.86%.
On the same counts, the results for `N#Cc1c(-c2cccc([N+](=O)[O-])c2)cc(-c2ccccc2O)nc1O` are 500 nM and 64%.
Turning to `Cc1ccccc1-c1cc(-c2ccccc2O)nc(O)c1C#N`, in assay [1], the half-inhibitory concentration (IC50) was 1000 nM. In assay [2], this compound displayed a Max relaxation of 89.17%.
In turn, `COc1ccc(-c2cc(-c3ccccc3O)nc(O)c2C#N)c(OC)c1` displayed a concentration for half-maximal inhibition (IC50) in assay [1] of 380 nM. In addition, the Max relaxation in assay [2] was found to be 40%.
On the same counts, the results for `N#Cc1c(-c2ccccc2Cl)cc(-c2ccccc2O)nc1O` are 30 nM and 79.78%.
